This passage reports IC50 results from patent US9670227B2, “Thienopyrimidine derivatives, a process for their preparation and pharmaceutical compositions containing them” (LES LABORATOIRES SERVIER, priority 2013, dated 2017).

The target in assay [1] is Mcl-1 protein (UniProtKB primary accession number: Q07820) (Homo sapiens, UniProt Q07820). In words: Inhibition of Mcl-1 by fluorescence polarisation, Method 1. Type of assay: binding. To be noted: read-out: IC50 (M) Mcl-1 FP. The method, boiled down:
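Binding was measured as fluorescence polarisation of a fluorescein-labelled ligand (1 nM) displaced from Mcl-1 (5 nM), both final. Compounds ran as 11-point series with final DMSO at 5%.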
(In general: Fluorescence polarisation rises when a labelled molecule tumbles more slowly, as on binding a larger partner.)

Assay [2] concerns H929 multiple myeloma tumour line. In words: In vitro cytotoxicity, Microculture Tetrazolium Assay. To be noted: H929 cells, 48 hours exposure, MTT, read-out: IC50 (μM) MTT H929. The assay is classed as cell-based. Here is the method: The cytotoxicity studies were carried out on the H929 multiple myeloma tumour line.
The cells are distributed onto microplates and exposed to the test compounds for 48 hours.

Where [3] appears, read: fluorescence polarisation test, Method 2 values are underlined in the patent (underlining not visible here).
The mark [4] stands for this setting: fluorescence polarisation, Method 1, or Method 2.

Like-named read-outs stand apart in the source and are kept apart here.

Mcl-1 protein, sequence (Q07820 whole entry): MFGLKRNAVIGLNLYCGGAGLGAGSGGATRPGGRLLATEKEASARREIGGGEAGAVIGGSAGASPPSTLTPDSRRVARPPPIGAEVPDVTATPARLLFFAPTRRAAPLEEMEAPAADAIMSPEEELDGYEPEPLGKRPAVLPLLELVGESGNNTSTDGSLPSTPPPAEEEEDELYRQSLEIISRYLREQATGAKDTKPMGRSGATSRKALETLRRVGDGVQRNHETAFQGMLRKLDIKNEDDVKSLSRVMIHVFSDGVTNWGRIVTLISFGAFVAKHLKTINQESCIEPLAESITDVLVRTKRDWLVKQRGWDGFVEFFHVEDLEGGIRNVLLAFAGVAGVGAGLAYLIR

As a reminder, the IC50 is the concentration needed to halve the response being measured. Take `Cc1c(-c2c(-c3ccco3)sc3ncnc(OC(Cc4ccccc4OCc4ncccc4Cl)C(=O)O)c23)ccc(OCCN2CCN(C)CC2)c1Cl` [Example 285, (2R)-2-{[(5Sa)-5-{3-chloro-2-methyl-4-[2-(4-methylpiperazin-1-yl)ethoxy]phenyl}-6-(furan-2-yl)thieno[2,3-d]pyrimidin-4-yl]oxy}-3-{2-[(3-chloropyridin-2-yl)methoxy]phenyl}propanoic acid]: the IC50 worked out at 1.7e-08 M in assay [1] (setting [3]) and 0.588 µM in assay [2] (Homo sapiens, NCI-H929, 48 h).

Regarding `Cc1c(-c2c(-c3ccc(F)cc3)sc3ncnc(OC(Cc4ccccc4OCc4ccnc(C(F)(F)F)c4)C(=O)O)c23)ccc(OCCN2CCN(C)CC2)c1Cl` [Example 17, (2R)-2-{[(5Sa)-5-{3-chloro-2-methyl-4-[2-(4-methylpiperazin-1-yl)ethoxy]phenyl}-6-(4-fluorophenyl)thieno[2,3-d]pyrimidin-4-yl]oxy}-3-(2-{[2-(trifluoromethyl)pyridin-4-yl]methoxy}phenyl)propanoic acid], the IC50 in assay [1] (setting [3]) was 1.2e-08 M; in assay [2] (Homo sapiens, NCI-H929, 48 h), 0.062 µM.

As for `CC#Cc1sc2ncnc(OC(Cc3ccccc3OC)C(=O)O)c2c1-c1ccc(OCCC2CCN(C)CC2)c(Cl)c1C` [Example 465, (2R)-2-{[(5Sa)-5-{3-chloro-2-methyl-4-[2-(1-methylpiperidin-4-yl)ethoxy]phenyl}-6-(prop-1-yn-1-yl)thieno[2,3-d]pyrimidin-4-yl]oxy}-3-(2-methoxyphenyl)propanoic acid], the IC50 in assay [1] (setting [4]) was 2.5e-08 M; in assay [2] (Homo sapiens, NCI-H929, 48 h) it was 2.06 µM.

For the compound `Cc1c(-c2c(-c3ccc(F)o3)sc3ncnc(OC(Cc4ccccc4OCc4ccncn4)C(=O)O)c23)ccc(OCCN2CCN(C)CC2)c1Cl` [Example 179, (2R)-2-{[(5Sa)-5-{3-chloro-2-methyl-4-[2-(4-methylpiperazin-1-yl)ethoxy]phenyl}-6-(5-fluorofuran-2-yl)thieno[2,3-d]pyrimidin-4-yl]oxy}-3-[2-(pyrimidin-4-ylmethoxy)phenyl]propanoic acid], the IC50 in assay [1] (setting [3]) was 5e-09 M; in assay [2] (Homo sapiens, NCI-H929, 48 h), 0.03 µM.

With `CCn1nccc1COc1ccccc1CC(Oc1ncnc2sc(-c3ccc(F)c(F)c3)c(-c3ccc(OCCN4CCN(C)CC4)c(Cl)c3C)c12)C(=O)O` [Example 708, (2R)-2-{[(5Sa)-5-{3-chloro-2-methyl-4-[2-(4-methylpiperazin-1-yl)ethoxy]phenyl}-6-(3,4-difluorophenyl)thieno[2,3-d]pyrimidin-4-yl]oxy}-3-{2-[(1-ethyl-1H-pyrazol-5-yl)methoxy]phenyl}propanoic acid], the half-inhibitory concentration (IC50) in assay [1] (setting [4]) turned out to be 9.6e-09 M; in assay [2] (Homo sapiens, NCI-H929, 48 h), 0.055 µM.

For the compound `CC#Cc1sc2ncnc(OC(Cc3cccc4occc34)C(=O)O)c2c1-c1ccc(OCCN2CCN(C)CC2)c(Cl)c1C` [Example 492, (2R)-3-(1-benzofuran-4-yl)-2-{[(5Sa)-5-{3-chloro-2-methyl-4-[2-(4-methylpiperazin-1-yl)ethoxy]phenyl}-6-(prop-1-yn-1-yl)thieno[2,3-d]pyrimidin-4-yl]oxy}propanoic acid], the IC50 in assay [1] (setting [4]) was found to be 9e-08 M; in assay [2] (Homo sapiens, NCI-H929, 48 h), 2.19 µM.

As for `CCCCCn1nccc1COc1ccccc1CC(Oc1ncnc2sc(-c3ccc(F)cc3)c(-c3ccc(OCCN4CCN(C)CC4)c(Cl)c3C)c12)C(=O)O` [Example 85, (2R)-2-{[(5Sa)-5-{3-chloro-2-methyl-4-[2-(4-methylpiperazin-1-yl)ethoxy]phenyl}-6-(4-fluorophenyl)thieno[2,3-d]pyrimidin-4-yl]oxy}-3-{2-[(1-pentyl-1H-pyrazol-5-yl)methoxy]phenyl}propanoic acid], the IC50 in assay [1] (setting [3]) is 3.6e-09 M; in assay [2] (Homo sapiens, NCI-H929, 48 h), 0.063 µM.

Take `Cc1c(-c2c(-c3cccc(F)c3)sc3ncnc(O[C@H](Cc4ccccc4O)C(=O)O)c23)ccc(OCCN2CCN(C)CC2)c1Cl` [Example 711, (2R)-2-{[(5Sa)-5-{3-chloro-2-methyl-4-[2-(4-methylpiperazin-1-yl)ethoxy]phenyl}-6-(3-fluorophenyl)thieno[2,3-d]pyrimidin-4-yl]oxy}-3-(2-hydroxyphenyl)propanoic acid]: the IC50 was 3.7e-09 M in assay [1] (setting [4]) and 0.591 µM in assay [2].

As for `COc1ccccc1CC(Oc1ncnc2sc(-c3cccc(N(C)C)c3)c(-c3ccc(OCCN4CCN(C)CC4)c(Cl)c3C)c12)C(=O)O` [Example 552, (2R)-2-[((5Sa)-5-{3-chloro-2-methyl-4-[2-(4-methylpiperazin-1-yl)ethoxy]phenyl}-6-[3-(dimethylamino)phenyl]thieno[2,3-d]pyrimidin-4-yl)oxy]-3-(2-methoxyphenyl)propanoic acid], the IC50 in assay [1] (setting [4]) stood at 4.1e-08 M; in assay [2] (Homo sapiens, NCI-H929, 48 h), 0.784 µM.

For the compound `CCc1sc2ncnc(OC(Cc3ccccc3)C(=O)O)c2c1-c1ccc(OCC(=O)N2CCOCC2)c(Cl)c1C` [Example 393, (2R)-2-[((5Sa)-5-{3-chloro-2-methyl-4-[2-(morpholin-4-yl)-2-oxoethoxy]phenyl}-6-ethylthieno[2,3-d]pyrimidin-4-yl)oxy]-3-phenylpropanoic acid], the concentration for half-maximal inhibition (IC50) turned out to be 4.1e-08 M in assay [1] (setting [4]) and 16.6 µM in assay [2] (Homo sapiens, NCI-H929, 48 h).

For the compound `Cc1c(-c2c(-c3ccco3)sc3ncnc(OC(Cc4ccccc4OCC(=O)N(C)C)C(=O)O)c23)ccc(OCCN2CCN(C)CC2)c1Cl` [Example 217, (2R)-2-{[(5Sa)-5-{3-chloro-2-methyl-4-[2-(4-methylpiperazin-1-yl)ethoxy]phenyl}-6-(furan-2-yl)thieno[2,3-d]pyrimidin-4-yl]oxy}-3-{2-[2-(dimethylamino)-2-oxoethoxy]phenyl}propanoic acid], the IC50 in assay [1] (setting [3]) was found to be 5.3e-09 M; in assay [2] (Homo sapiens, NCI-H929, 48 h), 1.48 µM.

As to `Cc1cncc(-c2nccc(COc3ccccc3CC(Oc3ncnc4sc(-c5ccc(F)cc5)c(-c5ccc(OCCN6CCN(C)CC6)c(Cl)c5C)c34)C(=O)O)n2)c1` [Example 122, (2R)-2-{[(5Sa)-5-{3-chloro-2-methyl-4-[2-(4-methylpiperazin-1-yl)ethoxy]phenyl}-6-(4-fluorophenyl)thieno[2,3-d]pyrimidin-4-yl]oxy}-3-(2-{[2-(5-methylpyridin-3-yl)pyrimidin-4-yl]methoxy}phenyl)propanoic acid], the half-maximal inhibitory concentration (IC50) in assay [1] (setting [3]) was 3.8e-09 M; in assay [2] (Homo sapiens, NCI-H929, 48 h), 0.01 µM.

For `COc1ccccc1CC(Oc1ncnc2sc(-c3ccc(C)cc3)c(-c3ccc(OCCN4CCN(C)CC4)c(Cl)c3C)c12)C(=O)O` [Example 538, (2R)-2-{[(5Sa)-5-{3-chloro-2-methyl-4-[2-(4-methylpiperazin-1-yl)ethoxy]phenyl}-6-(4-methylphenyl)thieno[2,3-d]pyrimidin-4-yl]oxy}-3-(2-methoxyphenyl)propanoic acid], the half-inhibitory concentration (IC50) amounted to 4.7e-08 M in assay [1] (setting [4]) and 0.672 µM in assay [2] (Homo sapiens, NCI-H929, 48 h).

Take `Cc1c(-c2c(-c3ccco3)sc3ncnc(OC(Cc4ccccc4OCc4cccnc4)C(=O)O)c23)ccc(OCCN2CCN(C)CC2)c1Cl` [Example 242, (2R)-2-{[(5Sa)-5-{3-chloro-2-methyl-4-[2-(4-methylpiperazin-1-yl)ethoxy]phenyl}-6-(furan-2-yl)thieno[2,3-d]pyrimidin-4-yl]oxy}-3-[2-(pyridin-3-ylmethoxy)phenyl]propanoic acid]: the 50% inhibitory concentration (IC50) in assay [1] (setting [3]) stood at 7.3e-09 M; in assay [2] (Homo sapiens, NCI-H929, 48 h), 0.09 µM.

As to `COc1ccccc1CC(Oc1ncnc2sc(-c3ccc(F)cc3)c(-c3ccc(OCCN4CCN(C)CC4)c(Cl)c3C)c12)C(=O)OCc1oc(=O)oc1C` [Example 644, (5-methyl-2-oxo-1,3-dioxol-4-yl)methyl (2R)-2-{[(5Sa)-5-{3-chloro-2-methyl-4-[2-(4-methylpiperazin-1-yl)ethoxy]phenyl}-6-(4-fluorophenyl)thieno[2,3-d]pyrimidin-4-yl]oxy}-3-(2-methoxyphenyl)propanoate], the 50% inhibitory concentration (IC50) in assay [1] (setting [4]) was found to be 3.7e-07 M; in assay [2] (Homo sapiens, NCI-H929, 48 h), 0.248 µM.

Take `COc1ccccc1CC(Oc1ncnc2sc(-c3ccc(F)cc3)c(-c3ccc(OCCN4CCN(C)CC4)c(Cl)c3Cl)c12)C(=O)O` [Example 647, (2R)-2-{[(5Sa)-5-{2,3-dichloro-4-[2-(4-methylpiperazin-1-yl)ethoxy]phenyl}-6-(4-fluorophenyl)thieno[2,3-d]pyrimidin-4-yl]oxy}-3-(2-methoxyphenyl)propanoic acid]: the IC50 in assay [1] (setting [4]) amounted to 2.3e-08 M; in assay [2] (Homo sapiens, NCI-H929, 48 h), 0.498 µM.

Regarding `COCCOc1ccccc1CC(Oc1ncnc2sc(-c3ccco3)c(-c3ccc(OCCN4CCN(C(C)C)CC4)c(Cl)c3C)c12)C(=O)O` [Example 671, (2R)-2-{[(5Sa)-5-(3-chloro-2-methyl-4-{2-[4-(propan-2-yl)piperazin-1-yl]ethoxy}phenyl)-6-(furan-2-yl)thieno[2,3-d]pyrimidin-4-yl]oxy}-3-[2-(2-methoxyethoxy)phenyl]propanoic acid], the IC50 is 6.9e-09 M in assay [1] (setting [4]) and 0.107 µM in assay [2] (Homo sapiens, NCI-H929, 48 h).

For `Cc1c(-c2c(-c3ccc(F)cc3)sc3ncnc(OC(Cc4ccccc4OCc4ccn[nH]4)C(=O)O)c23)ccc(OCCN2CCN(C)CC2)c1Cl` [Example 125, (2R)-2-{[(5Sa)-5-{3-chloro-2-methyl-4-[2-(4-methylpiperazin-1-yl)ethoxy]phenyl}-6-(4-fluorophenyl)thieno[2,3-d]pyrimidin-4-yl]oxy}-3-[2-(1H-pyrazol-5-ylmethoxy)phenyl]propanoic acid], the IC50 worked out at 7.3e-09 M in assay [1] (setting [3]) and 0.354 µM in assay [2] (Homo sapiens, NCI-H929, 48 h).

Consider `Cc1c(-c2c(-c3ccco3)sc3ncnc(OC(Cc4ccccc4SCC(F)(F)F)C(=O)O)c23)ccc(OCCN2CCN(C)CC2)c1Cl` [Example 362, (2R)-2-{[(5Sa)-5-{3-chloro-2-methyl-4-[2-(4-methylpiperazin-1-yl)ethoxy]phenyl}-6-(furan-2-yl)thieno[2,3-d]pyrimidin-4-yl]oxy}-3-{2-[(2,2,2-trifluoroethyl)sulfanyl]phenyl}propanoic acid], for which the half-inhibitory concentration (IC50) was found to be 2.6e-08 M in assay [1] (setting [3]) and 1 µM in assay [2] (Homo sapiens, NCI-H929, 48 h).
